Earlier results as cited in patent publication US20250129016A1, “[…] FOR RADI[…] ARENES AND USE THEREOF” (THE UNIVERSITY OF NORTH CAROLINA AT CHAPEL HILL, priority 2023, published 2025).

Conditions: previously reported

COc1cc2c(c(OC)c1OC)-c1ccc(OC)c(=O)cc1[C@@H](NC(C)=O)CC2 [39a, Colchicine]
route of excretion: excreted primarily through the biliary system, intestines, and kidneys
